Measured values as given in ChEMBL document CHEMBL4616609, “Potent non-hydroxamate inhibitors of histone deacetylase-8: Role and scope of an isoindolin-2-yl linker with an α-amino amide as the zinc-binding unit” (Bioorg Med Chem Lett, 2020).

Target: Histone deacetylase 2 (Homo sapiens, UniProt Q92769)
Assay: Inhibition of HDAC2 (unknown origin)

Sequence of Histone deacetylase 2 (Q92769 whole entry): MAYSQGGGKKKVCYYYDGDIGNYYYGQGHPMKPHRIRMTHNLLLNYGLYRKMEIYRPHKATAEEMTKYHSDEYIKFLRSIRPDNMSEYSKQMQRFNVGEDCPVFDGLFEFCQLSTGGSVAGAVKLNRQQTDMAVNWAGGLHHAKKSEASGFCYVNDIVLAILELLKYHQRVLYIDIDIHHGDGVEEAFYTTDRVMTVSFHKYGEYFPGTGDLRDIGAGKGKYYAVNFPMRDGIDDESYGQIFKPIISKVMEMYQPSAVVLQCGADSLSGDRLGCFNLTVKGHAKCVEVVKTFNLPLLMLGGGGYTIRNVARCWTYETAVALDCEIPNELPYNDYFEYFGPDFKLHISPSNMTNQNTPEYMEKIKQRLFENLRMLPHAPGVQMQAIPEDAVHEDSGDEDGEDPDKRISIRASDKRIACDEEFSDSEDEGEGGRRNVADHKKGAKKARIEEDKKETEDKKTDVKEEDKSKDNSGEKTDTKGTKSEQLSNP

In the case of CC(=O)Nc1ccc2c(c1)CN(C(=O)[C@H](N)Cc1ccc(Cl)cc1Cl)C2, the IC50 is reported as greater than 30 µM.

Target: T1, Histone deacetylase 8 (Homo sapiens, UniProt Q9BY41)
T1 sequence (Q9BY41 whole entry): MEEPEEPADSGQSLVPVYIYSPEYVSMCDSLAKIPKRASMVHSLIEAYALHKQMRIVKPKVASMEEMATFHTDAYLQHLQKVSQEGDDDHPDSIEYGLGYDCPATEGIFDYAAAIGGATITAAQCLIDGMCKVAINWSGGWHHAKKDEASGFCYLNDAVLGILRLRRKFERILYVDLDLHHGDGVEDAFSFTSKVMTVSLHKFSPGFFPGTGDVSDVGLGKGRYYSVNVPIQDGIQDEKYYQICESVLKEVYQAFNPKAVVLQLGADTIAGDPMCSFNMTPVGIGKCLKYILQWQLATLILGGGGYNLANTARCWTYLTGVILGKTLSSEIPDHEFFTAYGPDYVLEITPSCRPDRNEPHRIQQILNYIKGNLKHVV
Assay: Inhibition of HDAC8 (unknown origin)

Going from N[C@H](Cc1ccc(Cl)cc1Cl)C(=O)NCc1ccccc1 to N[C@H](Cc1ccc(Cl)cc1Cl)C(=O)NCCc1ccccc1, the IC50 falls from 4280 nM to 2500 nM (1.7-fold).

Compared with CNC(=O)[C@H](N)Cc1ccc(Cl)cc1Cl, N[C@H](Cc1ccc(Cl)cc1Cl)C(=O)O is 25-fold higher in IC50: 16500 nM for the first, 410000 nM for the second.

Compared with Nc1ccc2c(c1)CN(C(=O)[C@H](N)Cc1ccc(Cl)cc1Cl)C2, CNC(=O)c1ccc2c(c1)CN(C(=O)[C@H](N)Cc1ccc(Cl)cc1Cl)C2 is 2-fold higher in IC50: 130 nM for the first, 258 nM for the second.

Going from N[C@H](Cc1ccc(Cl)cc1Cl)C(=O)NCc1cccs1 to COc1ccc(CNC(=O)[C@H](N)Cc2ccc(Cl)cc2Cl)cc1, the IC50 rises from 3000 nM to 16600 nM (5.5-fold).

Compared with N[C@H](Cc1ccc(Cl)cc1Cl)C(=O)N1Cc2ccccc2C1, N[C@H](Cc1ccc(Cl)cc1Cl)C(=O)N1CCc2ccccc2C1 is 9.8-fold higher in IC50: 210 nM for the first, 2060 nM for the second.

Going from N[C@H](Cc1ccccc1)C(=O)N1Cc2ccccc2C1 to N[C@H](Cc1ccccc1)C(=O)N1CCc2ccccc2C1, the IC50 rises from 1150 nM to 10700 nM (9.3-fold). The first is the more potent here.

First: COc1ccc(NC(=O)[C@H](N)Cc2ccc(Cl)cc2Cl)cc1
Second: N[C@H](Cc1ccc(Cl)cc1Cl)C(=O)NCCc1ccc(O)cc1
The IC50 of the first is 2.1-fold higher: 2670 nM for the first, 1250 nM for the second. The second is the more potent here.

First: N[C@H](Cc1ccc(Cl)cc1Cl)C(=O)NCCCc1ccccc1
Second: N[C@H](Cc1ccc(Cl)cc1Cl)C(=O)NCCc1cccnc1
The IC50 of the first is 1.9-fold lower: 2010 nM for the first, 3850 nM for the second. The first is the more potent here.

Going from CN1CCN(C(=O)[C@H](N)Cc2ccccc2)CC1 to N[C@H](Cc1ccccc1)C(=O)N1CCN(c2ccccc2)CC1, the IC50 rises from 11000 nM to greater than 600000 nM. The first is the more potent here.

First: C[C@@H](NC(=O)[C@H](N)Cc1ccc(Cl)cc1Cl)c1ccccc1
Second: C[C@H](NC(=O)[C@H](N)Cc1ccc(Cl)cc1Cl)c1ccccc1
The IC50 of the first is 3-fold lower: 25300 nM for the first, 76400 nM for the second.

First: N[C@H](Cc1ccc(O)cc1)C(=O)N1CCc2ccccc2C1
Second: N[C@H](Cc1ccc(O)cc1)C(=O)N1Cc2ccccc2C1
The IC50 of the first is 5-fold higher: 21300 nM for the first, 4280 nM for the second.

Compared with N[C@H](Cc1ccc(Cl)cc1Cl)C(=O)NC1Cc2ccccc2C1, N[C@H](Cc1ccc(Cl)cc1Cl)C(=O)NCCc1c[nH]c2ccccc12 is 9-fold lower in IC50: 8760 nM for the first, 970 nM for the second. The second is the more potent here.

N[C@H](Cc1ccc(Cl)cc1Cl)C(=O)NCCc1ccc(O)c(O)c1 and N[C@H](Cc1ccc(Cl)cc1Cl)C(=O)NCCc1c[nH]c2ccc(O)cc12 are within 1.5-fold of each other in IC50: 2070 nM for the first, 1770 nM for the second.

N[C@H](Cc1ccc(Cl)cc1Cl)C(=O)N1Cc2ccc(NC(=O)Cc3ccccc3)cc2C1 and N[C@H](Cc1ccc(Cl)cc1Cl)C(=O)N1Cc2ccc(NC(=O)CCc3ccccc3)cc2C1 are within 1.5-fold of each other in IC50: 232 nM for the first, 259 nM for the second.

First: CC(=O)Nc1ccc2c(c1)CN(C(=O)[C@H](N)Cc1ccc(Cl)cc1Cl)C2
Second: CNCc1ccc2c(c1)CN(C(=O)[C@H](N)Cc1ccc(Cl)cc1Cl)C2
The IC50 of the first is 1.7-fold lower: 101 nM for the first, 176 nM for the second.

With N[C@H](Cc1ccc(Cl)cc1Cl)C(=O)Nc1ccc2[nH]c3ccccc3c2c1 the IC50 was 10500 nM.

Target: T2, Protein deacetylase HDAC6 (Homo sapiens, UniProt Q9UBN7)
T2 sequence (Q9UBN7 whole entry): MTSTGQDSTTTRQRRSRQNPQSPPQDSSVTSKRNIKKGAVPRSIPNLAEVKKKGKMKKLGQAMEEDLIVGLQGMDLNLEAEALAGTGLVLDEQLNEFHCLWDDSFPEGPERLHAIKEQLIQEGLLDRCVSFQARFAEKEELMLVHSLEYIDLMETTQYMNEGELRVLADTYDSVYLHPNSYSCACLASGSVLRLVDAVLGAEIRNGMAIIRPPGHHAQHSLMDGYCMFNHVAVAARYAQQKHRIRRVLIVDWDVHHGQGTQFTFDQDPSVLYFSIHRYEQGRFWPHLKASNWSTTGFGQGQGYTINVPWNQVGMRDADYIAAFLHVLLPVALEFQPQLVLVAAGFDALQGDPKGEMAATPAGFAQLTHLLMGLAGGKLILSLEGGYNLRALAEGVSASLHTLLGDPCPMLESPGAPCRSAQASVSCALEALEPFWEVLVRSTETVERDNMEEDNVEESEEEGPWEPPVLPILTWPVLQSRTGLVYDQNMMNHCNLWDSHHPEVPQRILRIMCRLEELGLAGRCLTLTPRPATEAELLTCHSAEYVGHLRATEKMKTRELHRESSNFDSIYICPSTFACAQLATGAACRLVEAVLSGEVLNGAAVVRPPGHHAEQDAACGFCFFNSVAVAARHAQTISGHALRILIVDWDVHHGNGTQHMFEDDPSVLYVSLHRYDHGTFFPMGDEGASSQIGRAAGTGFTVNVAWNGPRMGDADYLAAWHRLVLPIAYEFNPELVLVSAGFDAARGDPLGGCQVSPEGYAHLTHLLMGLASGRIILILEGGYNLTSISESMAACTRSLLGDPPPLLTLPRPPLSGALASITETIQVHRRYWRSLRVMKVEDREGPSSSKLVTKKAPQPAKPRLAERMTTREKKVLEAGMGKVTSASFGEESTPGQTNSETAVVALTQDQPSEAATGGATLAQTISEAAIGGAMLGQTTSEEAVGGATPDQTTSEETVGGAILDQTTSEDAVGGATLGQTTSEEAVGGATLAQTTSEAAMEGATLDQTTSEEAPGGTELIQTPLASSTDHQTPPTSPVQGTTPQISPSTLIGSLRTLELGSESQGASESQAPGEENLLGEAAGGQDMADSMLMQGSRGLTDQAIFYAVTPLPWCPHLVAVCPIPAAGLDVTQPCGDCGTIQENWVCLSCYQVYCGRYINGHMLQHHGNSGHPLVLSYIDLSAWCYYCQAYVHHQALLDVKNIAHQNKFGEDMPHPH
Assay: Inhibition of HDAC6 (unknown origin)

CC(=O)Nc1ccc2c(c1)CN(C(=O)[C@H](N)Cc1ccc(Cl)cc1Cl)C2 showed an IC50 greater than 30 µM.

Target: Histone deacetylase 1 (Homo sapiens, UniProt Q13547)
Sequence (Q13547 whole entry): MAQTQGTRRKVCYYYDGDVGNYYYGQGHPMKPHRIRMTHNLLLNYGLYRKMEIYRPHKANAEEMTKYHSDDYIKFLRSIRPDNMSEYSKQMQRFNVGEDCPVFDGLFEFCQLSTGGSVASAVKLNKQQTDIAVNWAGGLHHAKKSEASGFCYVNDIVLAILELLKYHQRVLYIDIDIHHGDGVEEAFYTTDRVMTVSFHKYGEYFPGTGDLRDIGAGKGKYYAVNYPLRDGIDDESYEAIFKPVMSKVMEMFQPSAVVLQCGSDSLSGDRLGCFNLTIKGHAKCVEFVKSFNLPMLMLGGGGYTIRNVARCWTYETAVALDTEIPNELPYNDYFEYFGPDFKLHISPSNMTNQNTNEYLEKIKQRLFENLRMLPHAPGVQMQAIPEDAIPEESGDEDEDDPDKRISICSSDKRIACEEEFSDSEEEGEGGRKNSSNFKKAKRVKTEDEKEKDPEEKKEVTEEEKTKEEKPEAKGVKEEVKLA
Assay: Inhibition of HDAC1 (unknown origin)

In the case of CC(=O)Nc1ccc2c(c1)CN(C(=O)[C@H](N)Cc1ccc(Cl)cc1Cl)C2, the IC50 is reported as 8.8 µM.
